The record followed here is PMC7949135, “Structural analysis of carbohydrate binding by the macrophage mannose receptor CD206” (The Journal of Biological Chemistry, 2021).

One experiment has as its target T1, biotin-tagged CRD4 (carbohydrate-recognition domain 4 of the mannose receptor, CD206) (Homo sapiens, UniProt P22897).
T1 construct: gene MRC1; borders from residues reported in crystals
T1 sequence (P22897 646-779): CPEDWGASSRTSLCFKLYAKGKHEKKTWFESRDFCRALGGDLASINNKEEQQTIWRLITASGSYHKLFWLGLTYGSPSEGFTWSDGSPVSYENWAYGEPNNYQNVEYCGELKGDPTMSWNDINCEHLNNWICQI
Briefly: solid-phase competition with horseradish peroxidase, CRD4 immobilised on streptavidin plates. The experiment is classed as binding.
Conditions: not given
The source says: solid-phase competition with horseradish peroxidase, CRD4 immobilised on streptavidin plates on biotin-tagged CRD4 (carbohydrate-recognition domain 4 of the mannose receptor, CD206)
A word on the Ki: it is the equilibrium dissociation constant of an inhibitor or competing ligand from its target. In turn, `CO[C@@H]1O[C@@H](C)[C@@H](O)[C@@H](O)[C@@H]1O` [αMeFuc] displayed a Ki of 110 ± 20 µM.
For the molecule `CO[C@H]1O[C@H](CO)[C@@H](O)[C@H](O)[C@@H]1O` [α-Methyl mannose], the Ki is 900 ± 100 µM.

Staying with this experiment, now noted: competitive; 2.5 mM CaCl2, 150 mM NaCl, 25 mM Tris-Cl pH 7.8, 4 °C.
`OC[C@H]1O[C@H](O[C@H]2[C@H](O)[C@@H](CO)OC(O)[C@H]2O)[C@@H](O)[C@@H](O)[C@@H]1O` (some centres unmarked) [Manα1-3Man] had a Ki of 860 ± 50 µM.
Still for that read-out and setting: with `OC[C@H]1O[C@H](O[C@H]2[C@H](O)[C@H](O)C(O)O[C@@H]2CO)[C@@H](O)[C@@H](O)[C@@H]1O` (some centres unmarked) [Manα1-4Man] the figure was 730 ± 70 µM.
As for `OC[C@H]1O[C@H](OC[C@H]2OC(O)[C@@H](O)[C@@H](O)[C@@H]2O)[C@@H](O)[C@@H](O)[C@@H]1O` (some centres unmarked) [Manα1-6Man], the Ki is 380 ± 30 µM.
Take `OC[C@H]1O[C@H](O[C@@H]2C(O)O[C@H](CO)[C@@H](O)[C@@H]2O)[C@@H](O)[C@@H](O)[C@@H]1O` (some centres unmarked) [Manα1-2Man]: the affinity, expressed as Ki, was 480 ± 40 µM.
Same read-out and setting: with `OC[C@H]1O[C@H](OC[C@H]2OC(O)[C@@H](O)[C@@H](O[C@H]3O[C@H](CO)[C@@H](O)[C@H](O)[C@@H]3O)[C@@H]2O)[C@@H](O)[C@@H](O)[C@@H]1O` (some centres unmarked) [Manα1-6(Manα1-3)Man] the figure was 300 ± 80 µM; with `CC(=O)N[C@H]1[C@H](O[C@H]2[C@H](O)[C@@H](NC(C)=O)C(O)O[C@@H]2CO)O[C@H](CO)[C@@H](O[C@@H]2O[C@H](CO[C@H]3O[C@H](CO[C@H]4O[C@H](CO)[C@@H](O)[C@H](O)[C@@H]4O[C@H]4O[C@H](CO)[C@@H](O)[C@H](O)[C@@H]4O)[C@@H](O)[C@H](O[C@H]4O[C@H](CO)[C@@H](O)[C@H](O)[C@@H]4O[C@H]4O[C@H](CO)[C@@H](O)[C@H](O)[C@@H]4O)[C@@H]3O)[C@@H](O)[C@H](O[C@H]3O[C@H](CO)[C@@H](O)[C@H](O)[C@@H]3O[C@H]3O[C@H](CO)[C@@H](O)[C@H](O)[C@@H]3O[C@H]3O[C@H](CO)[C@@H](O)[C@H](O)[C@@H]3O)[C@@H]2O)[C@@H]1O` (some centres unmarked) [Man9], 23 ± 0.4 µM.
